Data published in the supplement of paper PMC10627819.

Experiments:
S. pneumoniae D39V [1] = assay: fitness (endpoint OD595 vs no drug) (fraction); higher = more growth
Summary of the method: (§1)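 With the first reading as background, OD595 was measured every 30 min for 14 h in 384-well plates kept at 37 °C and inoculated at OD595 0.01. TSB, LB Lennox or CY was the medium. Fitness is the optical density at the transition into stationary phase divided by the robust mean of no-drug control wells, with a cap of 1.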

B. subtilis 168 [2] = assay: as above
Summary of the method: as §1

S. pneumoniae D39V [3] = assay: Bliss interaction score (quartile over a dose matrix) (fitness difference); higher = more antagonism (negative = synergy)
Summary of the method: (§2)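 The Bliss score is observed minus expected fitness, where expected fitness is the product of the single-drug fitness values inferred from the combination data. Fitness is the OD595 at the onset of stationary phase over the plate's robust no-drug mean, capped at 1. Scores are summarised by quartiles over technical, biological and donor/recipient replicates.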

B. subtilis 168 [4] = assay: as above
Summary of the method: as §2

S. aureus DSM 20231 = assay: as above
Summary of the method: as §2

S. aureus Newman = assay: as above
Summary of the method: as §2
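For Bliss interaction score (quartile over a dose matrix) in this document: first quartile when negative (synergy) and third quartile when positive (antagonism).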
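For fitness (endpoint OD595 vs no drug) in this document: OD595 on entry to stationary phase over no-drug wells; at most 1.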

CO/N=C(\C(=O)N[C@@H]1C(=O)N2C(C(=O)O)=C(COC(C)=O)CS[C@H]12)c1csc(N)n1 [Cefotaxime] + CCC(C)C1C(=O)NC(=C)C(=O)NC(C(=O)NC(CSCC(C(=O)N1)NC(=O)/C(=C/C)/NC(=O)C(C(C)CC)N)C(=O)NC2C(SCC(NC(=O)CNC(=O)C3CCCN3C2=O)C(=O)NC(CCCCN)C(=O)NC4C(SCC(NC(=O)CNC(=O)C(NC(=O)C(NC(=O)C(NC(=O)CNC4=O)C)CC(C)C)CCSC)C(=O)NC(CC(=O)N)C(=O)NC(CCSC)C(=O)NC(CCCCN)C(=O)NC5C(SCC6C(=O)NC(C(=O)NC(CSC(C(C(=O)N6)NC(=O)C(NC5=O)C)C)C(=O)NC(CO)C(=O)NC(C(C)CC)C(=O)NC(CC7=CN=CN7)C(=O)NC(C(C)C)C(=O)NC(=C)C(=O)NC(CCCCN)C(=O)O)CC8=CN=CN8)C)C)C)CC(C)C [Nisin]
fitness, S. pneumoniae D39V [1], main component drawn
Conditions	partner 0.4275 µg/mL	partner 0.855 µg/mL	partner 1.6 µg/mL	partner 1.71 µg/mL	partner 3.2 µg/mL	partner 6.4 µg/mL
first compound 0.0018 µg/mL	0.995	≥ 1	0.0249	0.0807	0.0291	0.0188
first compound 0.0035 µg/mL	0.896	0.936	0.0152	0.0712	0.0408	0.0145
first compound 0.007 µg/mL	0.835	0.577	0.0188	0.0886	0.0158	0.0145

B. subtilis 168 [2], one replicate, main component drawn
Conditions	fitness
first compound 0.00775 µg/mL, partner 0.5 µg/mL	0.825
first compound 0.00775 µg/mL, partner 1 µg/mL	0.74
first compound 0.00775 µg/mL, partner 2 µg/mL	0.508
first compound 0.0155 µg/mL, partner 0.5 µg/mL	0.704
first compound 0.0155 µg/mL, partner 1 µg/mL	0.605
first compound 0.0155 µg/mL, partner 2 µg/mL	0.434
first compound 0.031 µg/mL, partner 0.5 µg/mL	0.513
first compound 0.031 µg/mL, partner 1 µg/mL	0.432
first compound 0.031 µg/mL, partner 2 µg/mL	0.251
first compound 0.0625 µg/mL, partner 1.25 µg/mL	0.397
first compound 0.0625 µg/mL, partner 1.6 µg/mL	0.18
first compound 0.0625 µg/mL, partner 2.5 µg/mL	0.0546
first compound 0.0625 µg/mL, partner 3.2 µg/mL	0.0399
first compound 0.0625 µg/mL, partner 5 µg/mL	0.0497
first compound 0.0625 µg/mL, partner 6.4 µg/mL	0.0827
first compound 0.125 µg/mL, partner 1.25 µg/mL	0.176
first compound 0.125 µg/mL, partner 1.6 µg/mL	0.0847
first compound 0.125 µg/mL, partner 2.5 µg/mL	0.0355
first compound 0.125 µg/mL, partner 3.2 µg/mL	0.0507
first compound 0.125 µg/mL, partner 5 µg/mL	0.0352
first compound 0.125 µg/mL, partner 6.4 µg/mL	0.0748
first compound 0.25 µg/mL, partner 1.25 µg/mL	0.109
first compound 0.25 µg/mL, partner 1.6 µg/mL	0.0456
first compound 0.25 µg/mL, partner 2.5 µg/mL	0.0476
first compound 0.25 µg/mL, partner 3.2 µg/mL	0.0432
first compound 0.25 µg/mL, partner 5 µg/mL	0.0316
first compound 0.25 µg/mL, partner 6.4 µg/mL	0.0433
first compound 0.5 µg/mL, partner 0.5 µg/mL	0.105
first compound 0.5 µg/mL, partner 1 µg/mL	0.0334
first compound 0.5 µg/mL, partner 2 µg/mL	0.0461
first compound 0.5 µg/mL, partner 4 µg/mL	0.0435
first compound 0.5 µg/mL, partner 8 µg/mL	0.0411
first compound 0.5 µg/mL, partner 16 µg/mL	0.025
first compound 1 µg/mL, partner 0.5 µg/mL	0.0988
first compound 1 µg/mL, partner 1 µg/mL	0.0354
first compound 1 µg/mL, partner 2 µg/mL	0.0395
first compound 1 µg/mL, partner 4 µg/mL	0.0388
first compound 1 µg/mL, partner 8 µg/mL	0.0243
first compound 1 µg/mL, partner 16 µg/mL	0.0126
first compound 2 µg/mL, partner 0.5 µg/mL	0.0708
first compound 2 µg/mL, partner 1 µg/mL	0.0361
first compound 2 µg/mL, partner 2 µg/mL	0.0552
first compound 2 µg/mL, partner 4 µg/mL	0.0578
first compound 2 µg/mL, partner 8 µg/mL	0.0592
first compound 2 µg/mL, partner 16 µg/mL	0.0351

main component drawn
Conditions	Bliss interaction score
B. subtilis 168 [4]	-0.0392
S. aureus DSM 20231	-0.199
S. aureus Newman	-0.0293
S. pneumoniae D39V [3]	-0.051

CO/N=C(\C(=O)N[C@@H]1C(=O)N2C(C(=O)O)=C(COC(C)=O)CS[C@H]12)c1csc(N)n1 [Cefotaxime] + CN(C)C(=O)C(CCN1CCC(O)(c2ccc(Cl)cc2)CC1)(c1ccccc1)c1ccccc1 [Loperamide]
Conditions	fitness
B. subtilis 168 [2], first compound 0.5 µg/mL, partner 25 µg/mL	0.0401
B. subtilis 168 [2], first compound 0.5 µg/mL, partner 50 µg/mL	0.0447
B. subtilis 168 [2], first compound 0.5 µg/mL, partner 100 µg/mL	0.0339
B. subtilis 168 [2], first compound 1 µg/mL, partner 25 µg/mL	0.0257
B. subtilis 168 [2], first compound 1 µg/mL, partner 50 µg/mL	0.0406
B. subtilis 168 [2], first compound 1 µg/mL, partner 100 µg/mL	0.032
B. subtilis 168 [2], first compound 2 µg/mL, partner 25 µg/mL	0.0689
B. subtilis 168 [2], first compound 2 µg/mL, partner 50 µg/mL	0.0803
B. subtilis 168 [2], first compound 2 µg/mL, partner 100 µg/mL	0.0709
S. pneumoniae D39V [1], first compound 0.0018 µg/mL, partner 17.14 µg/mL	0.977
S. pneumoniae D39V [1], first compound 0.0018 µg/mL, partner 20 µg/mL	0.988
S. pneumoniae D39V [1], first compound 0.0018 µg/mL, partner 34.28 µg/mL	0.984
S. pneumoniae D39V [1], first compound 0.0018 µg/mL, partner 40 µg/mL	≥ 1
S. pneumoniae D39V [1], first compound 0.0018 µg/mL, partner 80 µg/mL	≥ 1
S. pneumoniae D39V [1], first compound 0.0035 µg/mL, partner 17.14 µg/mL	0.981
S. pneumoniae D39V [1], first compound 0.0035 µg/mL, partner 20 µg/mL	0.984
S. pneumoniae D39V [1], first compound 0.0035 µg/mL, partner 34.28 µg/mL	0.935
S. pneumoniae D39V [1], first compound 0.0035 µg/mL, partner 40 µg/mL	0.977
S. pneumoniae D39V [1], first compound 0.0035 µg/mL, partner 80 µg/mL	0.956
S. pneumoniae D39V [1], first compound 0.007 µg/mL, partner 20 µg/mL	0.898
S. pneumoniae D39V [1], first compound 0.007 µg/mL, partner 40 µg/mL	0.842
S. pneumoniae D39V [1], first compound 0.007 µg/mL, partner 80 µg/mL	0.262

fitness, one replicate
Conditions	first compound 0.0018 µg/mL	first compound 0.0035 µg/mL	first compound 0.007 µg/mL	first compound 0.00775 µg/mL	first compound 0.0155 µg/mL	first compound 0.031 µg/mL
B. subtilis 168 [2], partner 25 µg/mL	–	–	–	0.406	0.0668	0.0762
B. subtilis 168 [2], partner 50 µg/mL	–	–	–	0.0446	0.0311	0.0295
B. subtilis 168 [2], partner 100 µg/mL	–	–	–	0.0412	0.0228	0.0243
S. pneumoniae D39V [1], partner 68.57 µg/mL	≥ 1	0.999	0.761	–	–	–

Conditions	Bliss interaction score
B. subtilis 168 [4]	-0.0982
S. aureus DSM 20231	-0.0602
S. aureus Newman	0.0269
S. pneumoniae D39V [3]	-0.0572

CO/N=C(\C(=O)N[C@@H]1C(=O)N2C(C(=O)O)=C(COC(C)=O)CS[C@H]12)c1csc(N)n1 [Cefotaxime] + C[C@H]1COc2c(N3CCN(C)CC3)c(F)cc3c(=O)c(C(=O)O)cn1c23 [Levofloxacin]
Conditions	fitness
B. subtilis 168 [2], first compound 0.5 µg/mL, partner 0.0312 µg/mL	0.0483
B. subtilis 168 [2], first compound 0.5 µg/mL, partner 0.0625 µg/mL	0.0584
B. subtilis 168 [2], first compound 0.5 µg/mL, partner 0.125 µg/mL	0.0586
B. subtilis 168 [2], first compound 1 µg/mL, partner 0.0312 µg/mL	0.0414
B. subtilis 168 [2], first compound 1 µg/mL, partner 0.0625 µg/mL	0.0443
B. subtilis 168 [2], first compound 1 µg/mL, partner 0.125 µg/mL	0.0448
B. subtilis 168 [2], first compound 2 µg/mL, partner 0.0312 µg/mL	0.0456
B. subtilis 168 [2], first compound 2 µg/mL, partner 0.0625 µg/mL	0.0537
B. subtilis 168 [2], first compound 2 µg/mL, partner 0.125 µg/mL	0.0738
S. pneumoniae D39V [1], first compound 0.0018 µg/mL, partner 0.1725 µg/mL	0.986
S. pneumoniae D39V [1], first compound 0.0018 µg/mL, partner 0.2 µg/mL	0.966
S. pneumoniae D39V [1], first compound 0.0018 µg/mL, partner 0.345 µg/mL	0.956
S. pneumoniae D39V [1], first compound 0.0018 µg/mL, partner 0.4 µg/mL	0.925
S. pneumoniae D39V [1], first compound 0.0018 µg/mL, partner 0.69 µg/mL	0.701
S. pneumoniae D39V [1], first compound 0.0018 µg/mL, partner 0.8 µg/mL	0.632
S. pneumoniae D39V [1], first compound 0.0035 µg/mL, partner 0.1725 µg/mL	0.985
S. pneumoniae D39V [1], first compound 0.0035 µg/mL, partner 0.2 µg/mL	0.943
S. pneumoniae D39V [1], first compound 0.0035 µg/mL, partner 0.345 µg/mL	0.939
S. pneumoniae D39V [1], first compound 0.0035 µg/mL, partner 0.4 µg/mL	0.894
S. pneumoniae D39V [1], first compound 0.0035 µg/mL, partner 0.69 µg/mL	0.656
S. pneumoniae D39V [1], first compound 0.0035 µg/mL, partner 0.8 µg/mL	0.611
S. pneumoniae D39V [1], first compound 0.007 µg/mL, partner 0.1725 µg/mL	0.824
S. pneumoniae D39V [1], first compound 0.007 µg/mL, partner 0.2 µg/mL	0.922
S. pneumoniae D39V [1], first compound 0.007 µg/mL, partner 0.345 µg/mL	0.731
S. pneumoniae D39V [1], first compound 0.007 µg/mL, partner 0.4 µg/mL	0.846
S. pneumoniae D39V [1], first compound 0.007 µg/mL, partner 0.8 µg/mL	0.548

fitness, B. subtilis 168 [2], one replicate
Conditions	first compound 0.00775 µg/mL	first compound 0.0155 µg/mL	first compound 0.031 µg/mL	first compound 0.0625 µg/mL	first compound 0.125 µg/mL	first compound 0.25 µg/mL
partner 0.001 µg/mL	–	–	–	0.491	0.378	0.158
partner 0.002 µg/mL	0.874	0.691	0.57	0.382	0.311	0.158
partner 0.0039 µg/mL	0.834	0.683	0.565	0.418	0.306	0.128
partner 0.0078 µg/mL	0.812	0.659	0.496	–	–	–

Conditions	Bliss interaction score
B. subtilis 168 [4]	0.0631
S. aureus DSM 20231	-0.0398
S. aureus Newman	0.0336
S. pneumoniae D39V [3]	0.112
